Source: paper PMC7239764 (The FEBS journal, 2019)
Where “and” joins values, the source holds several entries; their conditions need not be identical. Equal values may be shown once. Read-outs that look alike come from different tables or passages of the source.

Legend:
[1] = target: T1, BaPDH (prephenate dehydrogenase from Bacillus anthracis) (Bacillus anthracis, UniProt Q81P63); assay type: binding
[2] = target: T1, BaPDH (prephenate dehydrogenase from Bacillus anthracis); assay: biochemical; assay type: binding
[3] = target: T1, BaPDH (prephenate dehydrogenase from Bacillus anthracis); assay: biochemical; assay type: biochemical; settings: for Km: 25°C, pH 7.5
[4] = target: AaPDH (prephenate dehydrogenase from Aquifex aeolicus); settings: cited from earlier work
[5] = target: arogenate dehydrogenase from cyanobacteria Synechocystis sp.; settings: cited from earlier work

T1 sequence (Q81P63 1-378): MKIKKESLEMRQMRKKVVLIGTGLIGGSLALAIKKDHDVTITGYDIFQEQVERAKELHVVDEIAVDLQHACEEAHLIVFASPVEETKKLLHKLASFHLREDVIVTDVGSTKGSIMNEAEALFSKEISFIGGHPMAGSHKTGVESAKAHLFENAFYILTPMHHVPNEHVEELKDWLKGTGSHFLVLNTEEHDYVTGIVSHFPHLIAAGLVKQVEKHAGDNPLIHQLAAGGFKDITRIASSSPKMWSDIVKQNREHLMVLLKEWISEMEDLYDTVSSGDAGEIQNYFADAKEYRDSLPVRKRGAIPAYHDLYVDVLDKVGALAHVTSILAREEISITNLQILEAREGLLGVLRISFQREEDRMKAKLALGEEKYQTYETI

Row | SMILES | Increase in Tm with the addition of the ligand(s) [1] | Tm [1] | Km [3] | Binding sites per protein dimer (N) [2] | also measured
1 | NC(=O)C1=CN([C@@H]2O[C@H](COP(=O)(O)OP(=O)(O)OC[C@H]3O[C@@H](n4cnc5c(N)ncnc54)[C@H](O)[C@@H]3O)[C@@H](O)[C@H]2O)C=CC1 [NADH] | do not significantly change and ns | 43 ± 2 °C | – | – | –
2 | NC(=O)C1=CN([C@@H]2O[C@H](COP(=O)(O)OP(=O)(O)OC[C@H]3O[C@@H](n4cnc5c(N)ncnc54)[C@H](OP(=O)(O)O)[C@@H]3O)[C@@H](O)[C@H]2O)C=CC1 [NADPH] | do not significantly change and ns | 40 ± 1 °C | – | – | –
3 | NC(=O)c1ccc[n+]([C@@H]2O[C@H](COP(=O)([O-])OP(=O)(O)OC[C@H]3O[C@@H](n4cnc5c(N)ncnc54)[C@H](OP(=O)(O)O)[C@@H]3O)[C@@H](O)[C@H]2O)c1 [NADP^+] | do not significantly change and ns | 41 ± 1 °C | – | – | Kd [2]: No detectable binding
4 | NC(=O)c1ccc[n+]([C@@H]2O[C@H](COP(=O)([O-])OP(=O)(O)OC[C@H]3O[C@@H](n4cnc5c(N)ncnc54)[C@H](O)[C@@H]3O)[C@@H](O)[C@H]2O)c1 [NAD^+] | does not impart a significant change and ns | 41 ± 1 °C | 237 ± 44 µM | 0.90 ± 0.01 | –
5 | N[C@@H](Cc1ccc(O)cc1)C(=O)O [Tyrosine, L-tyrosine] | – | 51 ± 1 °C | – | 1.002 ± 0.001 and 0.928 ± 0.003 | Ki [3]: 1470 ± 70 nM; mode of inhibition [3]: non-competitive inhibition; Kd ([2]; Kd): 640 nM and 370 nM; Ki [4]: 15900 ± 1300 nM; Ki [5]: 70000 nM
6 | O=C(O)C(=O)CC1(C(=O)O)C=CC(O)C=C1 (stereo not shown) [prephenate] | – | – | 58 ± 9 µM | – | –
